This note sets out measurements from BindingDB's records for doi:10.1016/j.bmc.2017.03.072 (Ewha Womans University, 2017).

The target in the assay is Interleukin-6 (Human, UniProt P05231). Kind of assay: ChEBML_1684684. The protocol: Inhibition of IL-6 signaling pathway in human HepG2 cells transfected with p-STAT3-Luc assessed as reduction in IL-6 induced STAT3 phosphorylation preincubated for 1 hr followed by IL-6 induction measured after 10 mins by immunoblot analysis
Interleukin-6, sequence (P05231 whole entry): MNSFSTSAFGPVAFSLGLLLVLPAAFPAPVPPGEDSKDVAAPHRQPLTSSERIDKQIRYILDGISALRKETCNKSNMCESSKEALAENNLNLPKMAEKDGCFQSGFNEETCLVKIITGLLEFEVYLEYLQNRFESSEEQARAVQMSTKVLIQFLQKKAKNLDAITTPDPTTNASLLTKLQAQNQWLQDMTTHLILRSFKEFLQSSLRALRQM
Turning to `CCc1ccc(Nc2nc3cc(N)ccc3o2)cc1`, the IC50 is 18.9 µM.
Compound `C=C1C(C)=C(CCCC)C(=O)[C@]1(C)CN1c2ccccc2[C@]2(O)CCO[C@H]12` showed a half-maximal inhibitory concentration (IC50) of 20.7 µM.
In the case of `CCc1ccc(Nc2nc3cc(NC(=O)c4ccccc4)ccc3o2)cc1`, inhibition was half-maximal at 5.8 µM (IC50).
